Measured values reported in patent US7498421B2, “Degradation fragments” (Medical Research Council, priority 2001, dated 2009).

Key:
[1] = Heat stability judged by HPLC; settings: 60° C. for 2 h
porcine carotid artery = assay: Oxygen consumption of porcine carotid artery rings (Clark oxygen electrode); settings: concentration of 4-methyl-3-vinylmaleimide not determined
Description: Porcine carotid artery were collected from an abattoir within 30 minutes of death, rinsed and immersed in PSS at 4° C., and immediately transported to the laboratory. Arteries were then trimmed of excess connective tissue and adventitia to be stored in PSS at 4° C. until use. The PSS was changed every 12 hours and the vessels were kept for up to 4 days. The PSS contained the following: 118 mmol/L sodium chloride, 25 mmol/L sodium hydrogen carbonate, 5.76 mmol/L potassium chloride, 2.5 mmol/L calcium chloride, 1.2 mmol/L magnesium sulphate, 0.5 mmol/L monobasic sodium phosphate, and 11.1 mmol/L glucose. The solution was oxygenated by bubbling with 95% oxygen and 5% carbon dioxide to maintain a pH of 7.4.
The rate of the oxygen consumption was determined using a Hansatech Instruments (Norfolk, United Kingdom) Clark oxygen electrode. Carotid artery rings approximately 0.2 cm long were vigorously rubbed to remove the endothelial cells and were added to the water-jacketed chambers containing PSS at 37° C. The rates of oxygen consumption were measured before and after the addition of crude mixture of the BR oxidative degradation products (final concentration 1 mg/mL of PSS), CSFSAH (final dilution 1/30) or 4-methyl-3-vinylmaleimide (purified on HPLC, freeze-dried and then re-dissolved in PSS). […]

[2] = Light sensitivity of purified fractions (sunlight, HPLC / 1H NMR); assay type: physicochemical; settings: sunlight for 90 min
Description: The chloroform extract was dissolved in 50% (v/v) aqueous and purified by HPLC. Experiments were conducted so as to exclude light from samples. Hypersil reversed-phase C18 (250×7 mm) or Spherisorb ODS (2) reversed-phase columns (250×4.6 mm) were equilibrated with 30% (v/v) aqueous acetonitrile at a flow rate pf 2 mL min^−1 and 1 mL min^−1, respectively. Elution was performed using 30% to 36% aqueous acetonitrile linear gradient at the same flow rates over 8 min. Fractions were monitored at 320 nm and collected manually. The fractions were freeze dried and stored at −80° C. for further analyses. Each fraction was re-dissolved in 50% (v/v) aqueous acetonitrile, re-injected and re-purified using the same conditions to remove impurities from other fractions. To investigate the light sensitivity of the compounds, purified fractions were exposed to sunlight for 90 min after dissolving 50% (v/v) aqueous and analysed by HLPC.

[3] = tested on: porcine carotid artery rings; assay: Isometric force measurement on porcine carotid artery rings
Description: Isometric force measurement were performed on porcine carotid artery rings to assess functional parameters during exposure to various compounds. The methods used were those used by J F Clark et al., J. Vasc. Res., 1995, 32. 24-30. KCl induced contraction is used as maximal isometric tension generation and results are reported as percentage of KCl maxima obtained for each carotid.

For `C=CC1=C(C)C(=O)NC1=O` [4-methyl-3-vinylmaleimide], which heat stability [1] is on record?
Its heat stability is “relatively heat-stable”.

And the “stimulation of oxygen consumption (in words)” value (porcine carotid artery)?
The value was “stimulated oxygen consumption”.

And the “intensity of HPLC peaks after exposure to sunlight” value [2]?
Its value is “significantly decreased”.

What does the source list for `C=CC1=C(C)C(=O)NC1=CC(N)=O` [Box A, 4-methyl-5-oxo-3-vinyl-(1,5-dihydropyrrol-2-ylidene)acetamide]?
1H NMR analysis after sunlight exposure [2]: degradation to a number of products; intensity of HPLC peaks after exposure to sunlight [2]: significantly decreased

What does the source list for `C=CC1=C(C)C(=CC(N)=O)NC1=O` [Box B, 3-methyl-5-oxo-4-vinyl-(1,5-dihydropyrrol-2-ylidene)acetamide]?
1H NMR analysis after sunlight exposure [2]: degradation to a number of products; intensity of HPLC peaks after exposure to sunlight [2]: significantly decreased

With `CC(CCc1ccc(O)cc1)NCCc1ccc(O)c(O)c1` (centres unmarked) [dobutamine] as the compound, how does the “effect of pre-treatment on tension development induced by ox-BR and CSF-SAH” value [3] read?
The value was “abrogated”.
